Test results taken from patent publication US20120053227A1, “miR-33 INHIBITORS AND USES THEREOF” (New York University, priority 2010, published 2012).

Columns and labels:
[1] = system: 3′ UTR of Crot, Cpt1a, Hadhb, Ampkα, and Irs2; assay: 3′ UTR luciferase reporter assay, Crot, Cpt1a, Hadhb, Ampkα, Irs2; format: cell-based; details: only modest differences between miR-33a and miR-33b
Excerpt: (§1) cDNA fragments corresponding to the entire 3′ UTR of carnitine O-octaniltransferase (Crot), carnitine palmitoyltransferase 1A (Cpt1a), hydroxyacyl-CoAdehydrogenase (Hadhb), AMP kinase subunit-α (Ampkα), and insulin receptor substrate 2 (Irs2), citrate synthase (Cs), 3-hydroxy-3-methylglutaryl CoA (Hmgcr), and Sirtuin 6 (Sirt6) were amplified by RT-PCR from total RNA extracted from HepG2 cells with XhoI and NotI linkers. The PCR products were directionally cloned downstream of the Renilla luciferase ORF of the ψCHECK2 vector (Promega) that also contains a constitutively expressed firefly luciferase gene, which is used to normalize transfections. Point mutations in the seed region of predicted miR-33 sites within the 3′ UTR of Crot, Cpt1a, Hadhb, Ampkα, and Sirt6 were generated using Multisite-Quickchange (Stratagene) according to the manufacturer's protocol. All constructs were confirmed by sequencing. COS-7 cells were plated into 12-well plates (Costar) and cotransfected with 1 μg indicated 3′ UTR luciferase reporter vectors and the miR-33 mimic or negative control mimic (CM) (Dharmacon) using Lipofectamine 2000 (Invitrogen). Luciferase activity was measured using the Dual-Glo Luciferase Assay System (Promega). […]

Huh7 cells [2] = assay: mRNA and protein expression of miR-33 target genes in transfected Huh7 cells; format: cell-based; details: for CROT, CPT1a, HADHB, AMPKα, SIRT6, and IRS2 protein expression: to a similar extent for miR-33a and miR-33b
Protocol: Total RNA was isolated using TRIzol reagent (Invitrogen) according to the manufacturer's protocol. For mRNA quantification, cDNA was synthesized using Taqman RT reagents (Applied Biosystems), following the manufacturer's protocol. Quantitative real-time PCR was performed in triplicate using iQ SYBR green Supermix (BioRad) on iCycler Real-Time Detection System (BioRad). The mRNA level was normalized to GAPDH as a house keeping gene. The primers sequences used were: […]
(§2) HepG2 and Huh7 cells were transfected with 40 nM miRIDIAN miRNA mimics (miR-33) or 60 nM miRIDIAN miRNA inhibitors (anti-miR-33) (Dharmacon) using Oligofectamine (Invitrogen). All experimental control samples were treated with an equal concentration of a nontargeting control mimic sequence (CM) or an inhibitor negative control sequence (CI) to control for nonsequence-specific effects in miRNA experiments

Huh7 cells [3] = assay: AKT and ERK phosphorylation after insulin stimulation; format: cell-based
Protocol: Cell were lysed in ice-cold buffer containing 50 mM Tris-HCl, pH 7.5, 125 mM NaCl, 1% NP-40, 5.3 mM NaF, 1.5 mM NaP and 1 mM orthovanadate, 175 mg/ml octylglucopyranoside and 1 mg/ml of protease inhibitor cocktail (Roche) and 0.25 mg/ml AEBSF (Roche). Cell lysates were rotated at 4° C. for 1 h before the insoluble material were removed by centrifugation at 12000×g for 10 min. After normalizing for equal protein concentration, cell lysates were resuspended in SDS sample buffer before separation by SDS-PAGE. Following overnight transfer of the proteins onto nitrocellulose membranes. The membranes were probed with the indicated antibodies, and protein bands were visualized using the Odyssey Infrared Imaging System (LI-COR Biotechnology). Densitometry analysis of the gels was carried out using ImageJ software from the NIH (http://rsbweb.nih.gov/ij/).
as §2

Huh7 cells [4] = assay: 2-Deoxyglucose uptake; format: cell-based
Protocol: Huh7 cells were transfected with miR-33b (20 nM) or negative control (Con-miR) for 48 h. Then, cells were cultured in serum-free media for 24 h, washed two times, and placed into warmed buffer for 2 h before glucose uptake studies. Insulin (100 nM) was added for 10 min. After this, […] 2-deoxyglucose (2-DOG) was added to each well (Perkin-Elmer). After 5 min, 5% unlabeled glucose was added to stop the reaction. Cells were then washed two times in 5% glucose and lysed by the addition of 0.5% SDS; 3 mL Ultima Gold scintillant (Packard) were added, samples were vortexed, and radioactivity was counted.

Sirt6 3′ UTR = assay: 3′ UTR luciferase reporter assay, Sirt6; format: cell-based, human
Excerpt: as §1

Huh7 cells [5] = assay: Triglyceride content and synthesis in Huh7 cells incubated with oleate and starved; format: cell-based; details: oleate 24 h then starved 24 h
Protocol: The accumulation of neutral lipids and lipid droplet formation was next evaluated tin Huh7 cells incubated with oleate for 24 h and then starved for the next 24 h. […] The increase in triglyceride content was independent of changes in triglyceride synthesis rates.

Huh7 cells [6] = assay: Fatty acid β-oxidation assay ([14C]-oleate); format: cell-based
Protocol: HepG2 and Huh7 cells were transfected with miR-33 (20 nM), anti-miR-33 (40 nM), or negative control (con-miR and con-inh, respectively), and the rate of fatty acid oxidation was determined. Cells were cultured in the presence of [^14C]-oleate (Perkin-Elmer)-BSA complex, and the released [^14C]-carbon dioxide was trapped for 1 h at 37° C. onto filter paper soaked in 100 mM sodium hydroxide. The rate of β-oxidation was calculated as the amount of trapped [^14C]-carbon dioxide in relative units produced per milligram of protein per hour. Experiments were performed in triplicate in p60 plates and were repeated at least three times.

Row | Substance | 3′ UTR activity of Crot, Cpt1a, Hadhb, Ampkα, and Irs2 [1] | CROT, CPT1a, HADHB, AMPKα, SIRT6, and IRS2 protein expression (Huh7 cells [2]) | AKT and ERK phosphorylation (Huh7 cells [3]) | insulin-induced 2-deoxyglucose (2-DOG) uptake (Huh7 cells [4]) | 3′ UTR activity of Sirt6 (Sirt6 3′ UTR) | triglycerides (TAG) accumulation (Huh7 cells [5]) | miR-33b expression, fold increase (Huh7 cells [6]) [fold] | rate of fatty acid β-oxidation (Huh7 cells [6]) | SIRT6 mRNA and protein levels (Huh7 cells [2]) | miR-33b expression after transfection, increase (Huh7 cells [2]) [fold] | mRNA levels of CROT, CPT1a, HADHB, AMPKα, and IRS2 (Huh7 cells [2]; anti-miR-33b: CROT, CPT1a, AMPKα, IRS2)
1 | miR-33a: miR-33a transfected into Huh7 cells; human miR-33a sequence GUGCAUUGUAGUUGCAUUGCA (SEQ ID NO:32) (listed as RNA, chemistry not given here; listed as Homo sapiens) | significantly inhibited | inhibited |  |  |  |  |  |  |  |  | 
2 | miR-33b: miR-33b transfected into Huh7 cells; human miR-33b sequence GUGCAUUGCUGUUGCAUUGC (SEQ ID NO:34) (listed as RNA, chemistry not given here; listed as Homo sapiens) | significantly inhibited | inhibited | reduced | reduced | markedly repressed | accumulated more triglycerides | 27 | markedly reduced | significantly inhibited | 32 | significantly inhibited
